Columns and labels:
Format in all cases: cell-based
BLT2 [1] = biological target: T1, BLT2 (Homo sapiens, UniProt Q9NPC1); test: Evaluation of BLT2 agonistic activity by monitoring the variation of intracellular Ca2+ concentration; parameters: expressed in transfected cells; conditions: for BLT2 agonistic activity: classification of the compounds (1) to (46)
T1 sequence (Q9NPC1 1-358): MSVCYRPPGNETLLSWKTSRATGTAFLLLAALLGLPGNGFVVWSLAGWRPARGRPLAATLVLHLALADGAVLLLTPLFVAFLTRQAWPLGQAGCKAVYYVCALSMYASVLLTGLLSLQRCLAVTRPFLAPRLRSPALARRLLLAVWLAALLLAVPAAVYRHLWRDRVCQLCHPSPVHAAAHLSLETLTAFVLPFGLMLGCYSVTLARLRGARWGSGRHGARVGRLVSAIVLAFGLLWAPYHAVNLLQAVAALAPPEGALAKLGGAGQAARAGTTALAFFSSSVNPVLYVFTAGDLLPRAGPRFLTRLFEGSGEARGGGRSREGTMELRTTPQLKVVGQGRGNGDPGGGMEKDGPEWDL

mBLT2 [2] = biological target: T2, mBLT2 (Mus musculus, UniProt Q9JJL9); test: Measurement of intracellular Ca2+ concentration in mBLT2-expressing CHO cells; conditions: FIG. 4, read-out: EC50 value, rise of the intracellular calcium concentration
T2 construct: mBLT2 ORF was amplified by PCR using a sense primer having BamHI restriction enzyme site; expressed in transfected cells
T2 sequence (Q9JJL9 1-360): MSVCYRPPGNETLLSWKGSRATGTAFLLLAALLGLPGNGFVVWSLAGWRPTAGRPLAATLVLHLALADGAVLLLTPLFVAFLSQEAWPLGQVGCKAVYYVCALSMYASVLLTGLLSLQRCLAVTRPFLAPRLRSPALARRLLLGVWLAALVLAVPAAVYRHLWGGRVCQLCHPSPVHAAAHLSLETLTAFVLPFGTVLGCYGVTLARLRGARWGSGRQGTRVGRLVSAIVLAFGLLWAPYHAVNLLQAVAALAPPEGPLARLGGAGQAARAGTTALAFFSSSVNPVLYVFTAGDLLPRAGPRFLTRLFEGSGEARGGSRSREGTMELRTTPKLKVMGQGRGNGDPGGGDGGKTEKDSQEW
Source text: mBLT2 ORF was amplified by PCR using a sense primer having BamHI restriction enzyme site (sense primer; 5′-[…]-3′ (SEQ ID NO.1)) and an antisense primer having EcoRI restriction enzyme site (antisense primer; 5′-[…]-3′ (SEQ ID NO.2)). The PCR product was digested with BamHI and EcoRI and inserted in expression plasmid (pcDNA3 Invitrogen). The inserted sequence was confirmed by the DNA sequence. Plasmid DNA ([…]) was transfected into CHO cells cultured in Ham's F-12 medium containing 10% fetal bovine serum and antibiotic (streptomycin (100 μg/mL) and penicillin (100 μg/L)) in cell culture plates (6 cm). The resistant strains were obtained by culturing for 2 weeks in the existence of antibiotic (G418 [Wako], 1 mg/mL). […]
mBLT2-expressing CHO cells prepared by Biological Example 3 were cultured in modified Hepes-Tyrode's BSA buffer (Hepes-NaOH (25 mM, pH7.4), NaCl (140 mM), KCl (2.7 mM), CaCl2(10 nM), NaHCO3(12 mM), D-Glucose (5.6 mM), NaH2PO4(0.37 mM), MgCl2(0.49 mM), cremophour (0.01%), fatty acid-free BSA (fraction V, 0.1w/v %)) containing fluorochrome (Fura-2 AM [Dojin], 3 μm) at 37° C. for 2 hours to make to take fluorochrome. […] Dimethylsulfoxide (DMSO) solution (5 μL) containing ligand was added to the cell suspension, of which the intracellular calcium concentration was monitored (excitation wavelength 340 nm and 380 nm and fluorescent wave-length 510 nm).

mBLT2 [3] = biological target: T2, mBLT2; test: ERK phosphorylation (1) in mBLT2-expressing CHO cells; conditions: ligand 5 minutes, FIG. 5
Source text: mBLT2 ORF was amplified by PCR using a sense primer having BamHI restriction enzyme site (sense primer; 5′-[…]-3′ (SEQ ID NO.1)) and an antisense primer having EcoRI restriction enzyme site (antisense primer; 5′-[…]-3′ (SEQ ID NO.2)). The PCR product was digested with BamHI and EcoRI and inserted in expression plasmid (pcDNA3 Invitrogen). The inserted sequence was confirmed by the DNA sequence. Plasmid DNA ([…]) was transfected into CHO cells cultured in Ham's F-12 medium containing 10% fetal bovine serum and antibiotic (streptomycin (100 μg/mL) and penicillin (100 μg/L)) in cell culture plates (6 cm). The resistant strains were obtained by culturing for 2 weeks in the existence of antibiotic (G418 [Wako], 1 mg/mL). The stable expressing strains were obtained by culturing 19 obtained resistant strains with limiting dilution method.

mBLT1 = biological target: T3, mBLT1 (Mus musculus, UniProt O88855); test: ERK phosphorylation (1) in mBLT1-expressing CHO cells; conditions: ligand 5 minutes, FIG. 5
T3 construct: expressed in transfected cells; host or cells: CHO cells

[4] = system: mouse primary culture keratinocytes; test: ERK phosphorylation (2) in mouse primary culture keratinocytes; conditions: FIG. 7
BLT1 [5] = biological target: T4, BLT1 (Homo sapiens, UniProt Q15722); test: BLT1 agonistic activity measured by the same way (intracellular Ca2+); conditions: measured by the same way as BLT2
BLT1 [6] = biological target: T4, BLT1; test: BLT1 antagonistic activity measured by the same way (intracellular Ca2+); conditions: measured by the same way as BLT2
Procedure: (§1) The receptor antagonist activity was evaluated by using human BLT2 gene-overexpressing Chinese Hamster Ovar (CHO) cells (see J. Exp. Med. Volume 192, Number 3 2000, and 421-.). BLT2-expressing cells were cultured in Ham 's F1 medium (GIBCO BRL and No. 11765-047) containing 10% FBS (fetal bovine serum), penicillin/streptomycin and blasticidin (5 μg/ml). First, to make the cells to take Fura2-AM (Dojindo and No. 348-05831), the cells were incubated in 5 μM Fura2-AM solution (Ham's F1 medium containing 10% FBS, 20 mM HEPES buffer (pH7.4) and 2.5 mM probenecid (Sigma and No. P-8761)) at 37° C. for 60 minutes. Then, the cells were washed once with Hanks solution containing 20 mM HEPES buffer (pH7.4) and 2.5 mM probenecid, and soaked in Hanks solution until assay. The plate was sat up on fluorescent drug screening system (Hamamatsu Photonics FDSS-2000) and measured without any stimulation for 30 seconds, to which the compound solution of the present invention was added. […] The compound of the present invention was dissolved to dimethylsulfoxide (DMSO) and added in order that the final concentration is […]. […] IC50 value is a concentration of the compound of the present invention in which the inhibition ratio is 50%. Also, BLT1 antagonistic activity was measured by the same way.

BLT2 [7] = biological target: T1, BLT2; test: Evaluation of BLT2 antagonistic activity by monitoring the variation of intracellular Ca2+ concentration; parameters: expressed in transfected cells; host or cells: CHO cells
Procedure: as §1

T4 sequence (Q15722 whole entry, species assumed): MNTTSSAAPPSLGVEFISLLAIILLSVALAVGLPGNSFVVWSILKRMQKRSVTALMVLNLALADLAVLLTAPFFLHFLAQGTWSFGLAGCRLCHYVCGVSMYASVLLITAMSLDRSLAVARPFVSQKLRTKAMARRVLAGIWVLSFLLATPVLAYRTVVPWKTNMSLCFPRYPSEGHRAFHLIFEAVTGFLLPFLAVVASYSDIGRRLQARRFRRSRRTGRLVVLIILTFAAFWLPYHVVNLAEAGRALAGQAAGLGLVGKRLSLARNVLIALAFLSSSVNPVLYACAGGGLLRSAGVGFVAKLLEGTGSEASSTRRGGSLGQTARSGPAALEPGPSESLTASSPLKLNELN
T3 sequence (O88855 whole entry): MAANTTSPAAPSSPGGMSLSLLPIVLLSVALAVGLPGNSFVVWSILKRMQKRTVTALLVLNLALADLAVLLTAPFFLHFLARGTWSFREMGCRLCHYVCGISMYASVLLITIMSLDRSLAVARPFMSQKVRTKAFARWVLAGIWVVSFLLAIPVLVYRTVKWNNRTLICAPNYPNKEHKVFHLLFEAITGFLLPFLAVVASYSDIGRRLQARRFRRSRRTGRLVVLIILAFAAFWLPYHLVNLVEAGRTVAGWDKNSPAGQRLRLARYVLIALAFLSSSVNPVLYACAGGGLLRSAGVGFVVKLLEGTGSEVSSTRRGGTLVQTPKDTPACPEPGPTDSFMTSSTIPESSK

BLT2 agonistic activity (BLT2 [1])	Compound	other results
BLT2 agonistic activity	CCCCN(Cc1ccc(-c2ccccc2-c2nnn[nH]2)cc1)C(=O)Nc1ccc(C)cc1 [(20), N-butyl-N′-(4-methylphenyl)-N-{[2′-(1H-tetrazol-5-yl)biphenyl-4-yl]methyl}urea]	–
BLT2 agonistic activity	CCCCN(Cc1ccc(-c2ccccc2-c2nnn[nH]2)cc1)C(=O)Nc1ccc(F)c(F)c1 [(30), N-butyl-N′-(3,4-difluorophenyl)-N-{[2′-(1H-tetrazol-5-yl)biphenyl-4-yl]methyl}urea]	–
BLT2 agonistic activity	CCCCN(Cc1ccc(-c2ccccc2-c2nnn[nH]2)cc1)C(=O)NCc1ccccc1 [(22), N′-benzyl-N-butyl-N-{[2′-(1H-tetrazol-5-yl)biphenyl-4-yl]methyl}urea]	–
BLT2 agonistic activity	CCCCN(Cc1ccc(-c2ccccc2-c2nnn[nH]2)cc1)C(=O)NCCc1ccccc1 [(5), N-butyl-N′-(2-phenylethyl)-N-{[2′-(1H-tetrazol-5-yl)biphenyl-4-yl]methyl}urea]	–
BLT2 agonistic activity	CCCCN(Cc1ccc(-c2ccccc2-c2nnn[nH]2)cc1)C(=O)Nc1sc2c(c1C(=O)O)CCCC2 [(40), 2-{[(butyl{[2′-(1H-tetrazol-5-yl)biphenyl-4-yl]methyl}amino)carbonyl]amino}-4,5,6,7-tetrahydro-1-benzothiophen-3-carboxylic acid]	–
BLT2 agonistic activity	CCCCN(Cc1ccc(-c2ccccc2-c2nnn[nH]2)cc1)C(=S)NCC(=O)OC [(10), methyl N-[(butyl {[2′-(1H-tetrazol-5-yl)biphenyl-4-yl]methyl}amino)carbonothioyl]glycinate]	–
BLT2 agonistic activity	CCCCN(Cc1ccc(-c2ccccc2-c2nnn[nH]2)cc1)C(=O)NC(=O)OCC [(34), ethyl[(butyl{[2′-(1H-tetrazol-5-yl)biphenyl-4-yl]methyl}amino)carbonyl]carbamate]	–
BLT2 agonistic activity	CCCCN(Cc1ccc(-c2ccccc2-c2nnn[nH]2)cc1)C(=O)NCCc1ccc(O)cc1 [(9), N-butyl-N′-[2-(4-hydroxyphenyl)ethyl]-N-{[2′-(1H-tetrazol-5-yl)biphenyl-4-yl]methyl}urea]	–

The next lines start with the molecule.

Compound	BLT2 agonistic activity (BLT2 [1])	other results
CCCCN(Cc1ccc(-c2ccccc2-c2nnn[nH]2)cc1)C(=O)NCCN1CCOCC1 [(45), N-butyl-N′-(2-morpholin-4-ylethyl)-N-{[2′-(1H-tetrazol-5-yl)biphenyl-4-yl]methyl}urea]	BLT2 agonistic activity	–
CCCCC/C=C\C[C@@H](O)/C=C/C=C/C=C\[C@@H](O)CCCC(=O)O [LTB4, 5-[S], 12-[R]-dihydroxy-6,14-cis-8,10-trans-eicosatetraenoic acid, reference compound]	–	EC50 (mBLT2 [2]): 0.121 µM; ERK phosphorylation (mBLT2 [3]): induced; ERK phosphorylation (mBLT1): induced; ERK phosphorylation [4]: induced ERK phosphorylation
CCCCN(Cc1ccc(-c2ccccc2-c2nnn[nH]2)cc1)C(=O)Nc1cccc(OC)c1 [(16), N-butyl-N′-(3-methoxyphenyl)-N-{[2′-(1H-tetrazol-5-yl)biphenyl-4-yl]methyl}urea]	BLT2 agonistic activity	–
O=C(Cc1ccccc1)NCc1ccc(-c2ccccc2C(=O)O)cc1 [Example 13, 4′-{[(phenylacetyl)amino]methyl}-1,1′-biphenyl-2-carboxylic acid]	–	BLT1 agonistic activity (BLT1 [5]): did not have BLT1 agonistic activity; IC50 (BLT2 [1]): 0.045 µM
CCCCN(Cc1ccc(-c2ccccc2-c2nnn[nH]2)cc1)C(=O)Nc1ccccc1O [(39), N-butyl-N′-(2-hydroxyphenyl)-N-{[2′-(1H-tetrazol-5-yl)biphenyl-4-yl]methyl}urea]	BLT2 agonistic activity	–
CCCCN(Cc1ccc(-c2ccccc2-c2nnn[nH]2)cc1)C(=O)Nc1ccccc1 [(13), N-butyl-N′-phenyl-N-{[2′-(1H-tetrazol-5-yl)biphenyl-4-yl]methyl}urea]	BLT2 agonistic activity	–
CCCCN(Cc1ccc(-c2ccccc2-c2nnn[nH]2)cc1)C(=O)NC(C)C [(7), N-butyl-N′-isopropyl-N-{[2′-(1H-tetrazol-5-yl)biphenyl-4-yl]methyl}urea]	BLT2 agonistic activity	–
CCCCN(Cc1ccc(-c2ccccc2-c2nnn[nH]2)cc1)C(=O)N[C@@H](C)c1ccccc1 [(21), N-butyl-N′-[(1S)-1-phenylethyl]-N-{[2′-(1H-tetrazol-5-yl)biphenyl-4-yl]methyl}urea]	BLT2 agonistic activity	–
CCCCN(Cc1ccc(-c2ccccc2-c2nnn[nH]2)cc1)C(=O)NCC1CCCO1 (stereo not drawn) [(43), N-butyl-N′-(tetrahydrofuran-2-ylmethyl)-N-{[2′-(1H-tetrazol-5-yl)biphenyl-4-yl]methyl}urea]	BLT2 agonistic activity	–
CCCCNC(=O)N(CCCC)Cc1ccc(-c2ccccc2-c2nnn[nH]2)cc1 [(11), N,N′-dibutyl-N-{[2′-(1H-tetrazol-5-yl)biphenyl-4-yl]methyl}urea]	BLT2 agonistic activity	–
CCCCN(Cc1ccc(-c2ccccc2-c2nnn[nH]2)cc1)C(=O)NC1CCCCC1 [(12), N-butyl-N′-cyclohexyl-N-{[2′-(1H-tetrazol-5-yl)biphenyl-4-yl]methyl}urea]	BLT2 agonistic activity	–
CCCCN(Cc1ccc(-c2ccccc2-c2nnn[nH]2)cc1)C(=O)Nc1cccc(C(=O)OCC)c1 [(19)]	BLT2 agonistic activity	–
O=C([O-])c1ccc(-c2cccc(CN(CCCc3ccccc3)C(=O)CCc3ccccc3)c2)cc1.[Na+] [Example 1(32), sodium 3′-{[(3-phenylpropanoyl)(3-phenylpropyl)amino]methyl}-1,1′-biphenyl-4-carboxylate]	–	BLT1 antagonistic activity (BLT1 [6]): did not have BLT1 antagonistic activity; IC50 (BLT2 [7]): 1.8 µM
CCCCN(Cc1ccc(-c2ccccc2-c2nnn[nH]2)cc1)C(=O)Nc1ccc(OC)cc1 [(17), N-butyl-N′-(4-methoxyphenyl)-N-{[2′-(1H-tetrazol-5-yl)biphenyl-4-yl]methyl}urea]	BLT2 agonistic activity	–

— US8673889B2, “BLT2-mediated disease, BLT2 binding agent and the compound” (Ono Pharmaceutical Co., Ltd., priority 2004, dated 2014)
